Experimental findings from patent publication EP3120851A1, “4-AMINO-6-(2,6-DICHLOROPHENYL)-8-METHYL-2-(PHENYLAMINO)-PYRIDO[2,3-D]PYRIMIDIN-7(8H)-ONE FOR TREATMENT OF SOLID CANCERS” (Pangaea Biotech S.L., priority 2015, dated 2017) are described below.

Assay in all cases: radiometric protein kinase assay (33PanQinase Activity Assay)
Holding throughout (type): biochemical
What all share (details): singlicate, read-out: residual activity

The target of one assay is T1, EGF-R G719S (Homo sapiens, UniProt P00533, G719S).
T1 construct: GST or His (not specified per kinase); purchased ProQinase (panel service); host or cells: Sf9 insect cells or E. coli
The protocol: (§1) In a first experiment, the kinase inhibition profile of the compound of formula (1) was evaluated at Proqinase (http://www.proqinase.com) by measuring residual activity values at a concentration of 10 µM of the test compound in singlicate in front of the following kinases: ABL2, EPHA3, CSF1-R, DDR2 wt, DDR2 N456 S, EGF-R d746-750, EGF-R d747-752/P753S, EGF-R G719C, EGF-R G719S, EGF-R L858R, EGF-R L861Q, EGF-R wt, EPHA1, EPHA2, EPHB1, ERBB4, LCK, MINK1, RAF1 Y340D/Y341D (untagged), RIPK2, STK17A. In a second experiment, the kinase inhibition profile of the compound of formula (1) was evaluated at Proqinase (http://www.proqinase.com) by measuring residual activity values at a concentration of 0.5 and 10 µM of the test compound in singlicate in front of a panel of 300 kinases using the following protocol:
(§2) The compounds were dissolved to 1 x 10^-03 M stock solutions in 100% DMSO. Subsequently, 100 µl of each stock solution were transferred into wells A3-F12 of a microtiter plate ("master plate"). Wells A1-F2 were filled with 100 µl 100% DMSO as controls. 5 x 10 µl of the master plate were aliquoted into 5 copy plates, which were stored at -20° Celsius until use. For the testing of each group of up to 8 kinases, one copy plate was used.
(§3) In the process, 90 µl H2O were added to each well of a copy plate. To minimize precipitation, the H2O was added to each well only a few minutes before the transfer of the compound solutions into the assay plates. The plate was shaken thoroughly, resulting in a "compound dilution plate" with a compound concentration of 1 x 10^-04 M/10 % DMSO. This plate was used for the transfer of 5 µl compound solution into the assay plates. The final volume of the assay was 50 µl. All compounds were tested at 1 x 10^-05 M in singlicate. The final DMSO concentration in the reaction cocktails was 1 % in all cases. The compound dilution plates were disposed at the end of each working day.
(§4) A radiometric protein kinase assay (^33PanQinase® Activity Assay) was used for measuring the kinase activity of the corresponding protein kinases. All kinase assays were performed in 96-well FlashPlatesTM from Perkin Elmer (Boston, MA, USA) in a 50 µl reaction volume. The reaction cocktail was pipetted in 4 steps in the following order: • 10 µl of non-radioactive ATP solution (in H2O) • 25 µl of assay buffer/ [γ-33P]-ATP mixture • 5 µl of test sample in 10% DMSO • 10 µl of enzyme/substrate mixture
(§5) The protein kinase reaction cocktails were incubated at 30°C for 60 minutes. The reaction was stopped with 50 µl of 2 % (v/v) H3PO4, plates were aspirated and washed two times with 200 µl 0.9 % (w/v) NaCl. All assays were performed with a BeckmanCoulter Biomek 2000/SL robotic system. Incorporation of ^33Pi (counting of "cpm") was determined with a microplate scintillation counter (Microbeta, Wallac).
(§6) All protein kinase assays were performed with a BeckmanCoulter Core robotic system.
(§7) All protein kinases provided by ProQinase were expressed in Sf9 insect cells or in E.coli as recombinant GST-fusion proteins or His-tagged proteins. All kinases were produced from human cDNAs and purified by either GSH-affinity chromatography or immobilized metal. Affinity tags were removed from a number of kinases during purification. The purity of the protein kinases was examined by SDS-PAGE/Coomassie staining, the identity was checked by mass spectroscopy.
(§8) Kinases from external vendors (CAR = Carna Biosciences Inc.; INV = Life Technologies (Invitrogen Corporation); MIL = Merck-Millipore (Millipore Corporation)) were expressed, purified and quality-controlled by virtue of the vendors readings.
(§9) For each kinase, the median value of the cpm of six wells of column 1 of each assay plate was defined as "low control" (n=6). This value reflects unspecific binding of radioactivity to the plate in the absence of a protein kinase but in the presence of the substrate. […]

The target in the next assay is T2, EGF-R L861Q (Homo sapiens, UniProt P00533, L861Q).
T2 construct: GST or His (not specified per kinase); purchased ProQinase (panel service); host or cells: Sf9 insect cells or E. coli
The protocol:
as §1, §2, §3, §4, §5, §6, §7, §8, §9

Another assay addresses T3, EGF-R d747-752/P753S (Homo sapiens, UniProt P00533, DEL747-752/P753S).
T3 construct: GST or His (not specified per kinase); purchased ProQinase (panel service); host or cells: Sf9 insect cells or E. coli
The protocol: as §1, §2, §3, §4, §5, §6, §7, §8, §9

T1 sequence (P00533 25-1210 G719S): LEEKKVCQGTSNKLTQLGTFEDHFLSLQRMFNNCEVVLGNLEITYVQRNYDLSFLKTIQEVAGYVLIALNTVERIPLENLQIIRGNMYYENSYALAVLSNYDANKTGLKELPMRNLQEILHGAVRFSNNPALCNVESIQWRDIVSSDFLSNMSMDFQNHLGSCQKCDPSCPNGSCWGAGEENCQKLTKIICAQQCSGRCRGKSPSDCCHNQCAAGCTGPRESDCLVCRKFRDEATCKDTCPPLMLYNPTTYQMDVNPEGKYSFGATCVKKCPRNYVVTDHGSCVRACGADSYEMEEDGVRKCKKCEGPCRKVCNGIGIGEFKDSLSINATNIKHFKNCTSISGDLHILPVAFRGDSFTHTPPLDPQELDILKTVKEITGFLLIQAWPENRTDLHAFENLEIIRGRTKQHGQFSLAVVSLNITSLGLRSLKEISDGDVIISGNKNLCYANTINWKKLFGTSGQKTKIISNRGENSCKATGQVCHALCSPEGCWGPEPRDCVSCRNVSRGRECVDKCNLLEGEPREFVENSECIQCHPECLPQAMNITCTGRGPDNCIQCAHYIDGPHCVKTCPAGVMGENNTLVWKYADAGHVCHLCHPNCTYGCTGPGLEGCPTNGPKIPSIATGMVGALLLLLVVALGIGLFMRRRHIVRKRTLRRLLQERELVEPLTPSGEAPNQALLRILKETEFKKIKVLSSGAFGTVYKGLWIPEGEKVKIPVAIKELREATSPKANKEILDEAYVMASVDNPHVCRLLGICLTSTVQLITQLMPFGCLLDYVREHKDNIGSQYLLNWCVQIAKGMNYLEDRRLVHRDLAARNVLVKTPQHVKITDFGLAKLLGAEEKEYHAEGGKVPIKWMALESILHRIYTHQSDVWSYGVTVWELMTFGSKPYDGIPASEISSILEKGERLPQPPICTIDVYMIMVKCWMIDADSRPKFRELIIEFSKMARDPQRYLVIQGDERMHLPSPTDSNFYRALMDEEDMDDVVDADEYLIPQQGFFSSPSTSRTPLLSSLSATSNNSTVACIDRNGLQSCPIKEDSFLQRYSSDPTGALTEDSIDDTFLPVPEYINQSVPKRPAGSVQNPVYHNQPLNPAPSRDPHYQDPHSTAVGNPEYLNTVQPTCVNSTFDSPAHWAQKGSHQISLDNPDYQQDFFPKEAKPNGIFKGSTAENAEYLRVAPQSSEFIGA
T3 sequence (P00533 with tags, fused parts or gaps DEL747-752/P753S limits assumed): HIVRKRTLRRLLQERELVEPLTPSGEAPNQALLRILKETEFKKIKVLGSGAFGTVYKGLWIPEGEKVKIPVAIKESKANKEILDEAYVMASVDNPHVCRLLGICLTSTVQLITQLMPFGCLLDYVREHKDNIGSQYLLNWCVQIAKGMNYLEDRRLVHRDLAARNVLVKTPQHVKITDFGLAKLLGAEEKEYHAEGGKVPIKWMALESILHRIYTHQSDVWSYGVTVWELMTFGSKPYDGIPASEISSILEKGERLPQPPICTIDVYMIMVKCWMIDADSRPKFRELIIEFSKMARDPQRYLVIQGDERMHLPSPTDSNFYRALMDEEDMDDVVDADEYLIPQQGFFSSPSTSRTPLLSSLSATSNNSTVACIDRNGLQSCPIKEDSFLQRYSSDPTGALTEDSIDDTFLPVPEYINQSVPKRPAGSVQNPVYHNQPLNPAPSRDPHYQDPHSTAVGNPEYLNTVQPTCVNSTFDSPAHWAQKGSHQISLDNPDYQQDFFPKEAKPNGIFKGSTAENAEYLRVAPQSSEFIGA
T2 sequence (P00533 25-1210 L861Q): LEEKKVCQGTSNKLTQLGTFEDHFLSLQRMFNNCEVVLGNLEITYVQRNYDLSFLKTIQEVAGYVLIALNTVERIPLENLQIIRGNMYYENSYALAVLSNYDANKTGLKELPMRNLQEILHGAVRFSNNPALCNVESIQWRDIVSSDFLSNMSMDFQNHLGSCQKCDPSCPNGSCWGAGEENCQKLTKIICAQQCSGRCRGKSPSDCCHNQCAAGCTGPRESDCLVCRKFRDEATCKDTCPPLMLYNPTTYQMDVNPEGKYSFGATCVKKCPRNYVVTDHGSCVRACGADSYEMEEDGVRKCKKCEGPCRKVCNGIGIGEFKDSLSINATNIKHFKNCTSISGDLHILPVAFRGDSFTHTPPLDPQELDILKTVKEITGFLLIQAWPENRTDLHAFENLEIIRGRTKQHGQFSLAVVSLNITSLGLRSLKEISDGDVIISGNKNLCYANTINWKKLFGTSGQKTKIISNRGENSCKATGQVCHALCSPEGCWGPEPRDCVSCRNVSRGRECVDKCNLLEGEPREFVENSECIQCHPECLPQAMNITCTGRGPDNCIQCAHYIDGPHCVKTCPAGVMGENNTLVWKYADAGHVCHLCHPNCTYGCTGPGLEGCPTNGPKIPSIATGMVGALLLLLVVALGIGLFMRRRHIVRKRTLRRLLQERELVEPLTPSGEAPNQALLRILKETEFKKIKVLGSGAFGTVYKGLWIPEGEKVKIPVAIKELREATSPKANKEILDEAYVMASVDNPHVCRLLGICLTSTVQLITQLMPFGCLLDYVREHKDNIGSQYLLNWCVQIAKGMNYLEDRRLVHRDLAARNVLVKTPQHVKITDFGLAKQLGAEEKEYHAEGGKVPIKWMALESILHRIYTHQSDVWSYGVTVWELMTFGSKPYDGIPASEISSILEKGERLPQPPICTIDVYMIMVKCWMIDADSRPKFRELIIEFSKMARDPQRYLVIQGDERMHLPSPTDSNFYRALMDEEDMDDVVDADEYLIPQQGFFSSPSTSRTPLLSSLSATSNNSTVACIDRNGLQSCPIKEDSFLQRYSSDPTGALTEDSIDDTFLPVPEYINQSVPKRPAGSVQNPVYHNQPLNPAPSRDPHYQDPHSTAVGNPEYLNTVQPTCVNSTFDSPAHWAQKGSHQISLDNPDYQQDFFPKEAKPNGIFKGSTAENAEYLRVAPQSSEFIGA

For `Cn1c(=O)c(-c2c(Cl)cccc2Cl)cc2c(N)nc(Nc3ccccc3)nc21` [Compound (1), 4-amino-6-(2,6-dichlorophenyl)-8-methyl-2-(phenylamino)-pyrido[2,3-d]pyrimidin-7(8H)-one], the values for the remaining activity at 0.5 µM on EGF-R G719S (0.5 µM test compound), on EGF-R L861Q (0.5 µM test compound) and on EGF-R d747-752/P753S (0.5 µM test compound) were 39%, 36% and 47%, respectively. Moreover, the remaining activity at 10 µM on EGF-R G719S (10 µM test compound) is 3%; on EGF-R L861Q (10 µM test compound), 8%; at EGF-R d747-752/P753S (10 µM test compound), 15%.
